Laboratory results from PubChem BioAssay (NCI).
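Five compound concentrations were applied to cells in 96-well plates for 48 hours; endpoints were derived by simple linear interpolation of the resulting dose-response curve. At the TGI there is no net growth.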

Columns and labels:
Test in all cases: NCI-60 cell line screen, 48 h
786-0 renal = tested on: 786-0 renal
A498 renal = tested on: A498 renal
A549 NSCLC = tested on: A549 NSCLC
ACHN renal = tested on: ACHN renal
BT-549 breast = tested on: BT-549 breast
CAKI-1 renal = tested on: CAKI-1 renal
CCRF-CEM leukemia = tested on: CCRF-CEM leukemia
COLO 205 colon = tested on: COLO 205 colon
DLD-1 colon = tested on: DLD-1 colon
DMS 114 small cell lung = tested on: DMS 114 small cell lung
DMS 273 small cell lung = tested on: DMS 273 small cell lung
DU-145 prostate = tested on: DU-145 prostate
EKVX NSCLC = tested on: EKVX NSCLC
HCC-2998 colon = tested on: HCC-2998 colon
HCT-116 colon = tested on: HCT-116 colon
HCT-15 colon = tested on: HCT-15 colon
HL-60(TB) leukemia = tested on: HL-60(TB) leukemia
HOP-18 NSCLC = tested on: HOP-18 NSCLC
HOP-62 NSCLC = tested on: HOP-62 NSCLC
HOP-92 NSCLC = tested on: HOP-92 NSCLC
HS 578T breast = tested on: HS 578T breast
HT29 colon = tested on: HT29 colon
IGROV1 ovarian = tested on: IGROV1 ovarian
K-562 leukemia = tested on: K-562 leukemia
KM12 colon = tested on: KM12 colon
KM20L2 colon = tested on: KM20L2 colon
LOX IMVI melanoma = tested on: LOX IMVI melanoma
LXFL 529 NSCLC = tested on: LXFL 529 NSCLC
M14 melanoma = tested on: M14 melanoma
M19-MEL melanoma = tested on: M19-MEL melanoma
MALME-3M melanoma = tested on: MALME-3M melanoma
MCF7 breast = tested on: MCF7 breast
MDA-MB-231 breast = tested on: MDA-MB-231 breast
MDA-MB-435 = tested on: MDA-MB-435
MDA-N = tested on: MDA-N
MOLT-4 leukemia = tested on: MOLT-4 leukemia
NCI-H226 lung = tested on: NCI-H226 lung
NCI-H23 lung = tested on: NCI-H23 lung
NCI-H460 lung = tested on: NCI-H460 lung
NCI-H522 lung = tested on: NCI-H522 lung
NCI/ADR-RES ovarian = tested on: NCI/ADR-RES ovarian
OVCAR-3 ovarian = tested on: OVCAR-3 ovarian
OVCAR-4 ovarian = tested on: OVCAR-4 ovarian
OVCAR-5 ovarian = tested on: OVCAR-5 ovarian
OVCAR-8 ovarian = tested on: OVCAR-8 ovarian
PC-3 prostate = tested on: PC-3 prostate
RPMI-8226 leukemia = tested on: RPMI-8226 leukemia
RXF 393 renal = tested on: RXF 393 renal
SF-268 CNS = tested on: SF-268 CNS
SF-295 CNS = tested on: SF-295 CNS
SF-539 CNS = tested on: SF-539 CNS
SK-MEL-2 melanoma = tested on: SK-MEL-2 melanoma
SK-MEL-28 melanoma = tested on: SK-MEL-28 melanoma
SK-MEL-5 melanoma = tested on: SK-MEL-5 melanoma
SK-OV-3 ovarian = tested on: SK-OV-3 ovarian
SN12C renal = tested on: SN12C renal
SNB-19 CNS = tested on: SNB-19 CNS
SNB-75 CNS = tested on: SNB-75 CNS
SNB-78 CNS = tested on: SNB-78 CNS
SR leukemia = tested on: SR leukemia
SW-620 colon = tested on: SW-620 colon
T-47D breast = tested on: T-47D breast
TK-10 renal = tested on: TK-10 renal
U251 CNS = tested on: U251 CNS
UACC-257 melanoma = tested on: UACC-257 melanoma
UACC-62 melanoma = tested on: UACC-62 melanoma
UO-31 renal = tested on: UO-31 renal
XF 498 CNS = tested on: XF 498 CNS

Question: With `CC(C)(CN1CCCCC1)C(=O)/C=C/c1ccc(/C=C/C(=O)C(C)(C)CN2CCCCC2)cc1` as the molecule, how does the TGI (786-0 renal) read?
Answer: 2.79 µM

Question: And the TGI (A498 renal)?
Answer: 3.08 µM

Question: What about the TGI (A549 NSCLC) of the same molecule?
Answer: 2.97 µM

Question: What about the TGI (ACHN renal) of the same molecule?
Answer: 0.669 µM

Question: What about the TGI (BT-549 breast) of the same molecule?
Answer: 3.35 µM

Question: What about the TGI (CAKI-1 renal) of the same molecule?
Answer: 0.904 µM

Question: What about the TGI (CCRF-CEM leukemia) of the same molecule?
Answer: 0.234 µM

Question: And the TGI (COLO 205 colon)?
Answer: 0.418 µM

Question: And the TGI (DLD-1 colon)?
Answer: 0.323 µM

Question: And the TGI (DMS 114 small cell lung)?
Answer: 1.95 µM

Question: What about the TGI (DMS 273 small cell lung) of the same molecule?
Answer: 1.23 µM

Question: What about the TGI (DU-145 prostate) of the same molecule?
Answer: 5.05 µM

Question: What about the TGI (EKVX NSCLC) of the same molecule?
Answer: 4.21 µM

Question: What about the TGI (HCC-2998 colon) of the same molecule?
Answer: 1.07 µM

Question: What about the TGI (HCT-116 colon) of the same molecule?
Answer: 1.1 µM

Question: What about the TGI (HCT-15 colon) of the same molecule?
Answer: 0.703 µM

Question: And the TGI (HL-60(TB) leukemia)?
Answer: 0.714 µM

Question: And the TGI (HOP-18 NSCLC)?
Answer: 2.57 µM

Question: What about the TGI (HOP-62 NSCLC) of the same molecule?
Answer: 2.19 µM

Question: What about the TGI (HOP-92 NSCLC) of the same molecule?
Answer: 1.58 µM

Question: And the TGI (HS 578T breast)?
Answer: 3.2 µM

Question: What about the TGI (HT29 colon) of the same molecule?
Answer: 0.514 µM

Question: What about the TGI (IGROV1 ovarian) of the same molecule?
Answer: 1.52 µM

Question: What about the TGI (K-562 leukemia) of the same molecule?
Answer: 0.375 µM

Question: And the TGI (KM12 colon)?
Answer: 1.35 µM

Question: And the TGI (KM20L2 colon)?
Answer: 1.65 µM

Question: And the TGI (LOX IMVI melanoma)?
Answer: 0.856 µM

Question: And the TGI (LXFL 529 NSCLC)?
Answer: 0.682 µM

Question: What about the TGI (M14 melanoma) of the same molecule?
Answer: 3.26 µM

Question: What about the TGI (M19-MEL melanoma) of the same molecule?
Answer: 2.35 µM

Question: And the TGI (MALME-3M melanoma)?
Answer: 2.24 µM

Question: What about the TGI (MCF7 breast) of the same molecule?
Answer: 1.77 µM

Question: What about the TGI (MDA-MB-231 breast) of the same molecule?
Answer: 0.476 µM

Question: What about the TGI (MDA-MB-435) of the same molecule?
Answer: 0.984 µM

Question: What about the TGI (MDA-N) of the same molecule?
Answer: 0.401 µM

Question: What about the TGI (MOLT-4 leukemia) of the same molecule?
Answer: 0.33 µM

Question: And the TGI (NCI-H226 lung)?
Answer: 3.77 µM

Question: And the TGI (NCI-H23 lung)?
Answer: 2.04 µM

Question: What about the TGI (NCI-H460 lung) of the same molecule?
Answer: 1.96 µM

Question: And the TGI (NCI-H522 lung)?
Answer: 0.167 µM

Question: What about the TGI (NCI/ADR-RES ovarian) of the same molecule?
Answer: 2.36 µM

Question: What about the TGI (OVCAR-3 ovarian) of the same molecule?
Answer: 1.17 µM

Question: What about the TGI (OVCAR-4 ovarian) of the same molecule?
Answer: 1.47 µM

Question: And the TGI (OVCAR-5 ovarian)?
Answer: 1.57 µM

Question: And the TGI (OVCAR-8 ovarian)?
Answer: 3.57 µM

Question: What about the TGI (PC-3 prostate) of the same molecule?
Answer: 0.82 µM

Question: What about the TGI (RPMI-8226 leukemia) of the same molecule?
Answer: 0.663 µM

Question: What about the TGI (RXF 393 renal) of the same molecule?
Answer: 0.745 µM

Question: And the TGI (SF-268 CNS)?
Answer: 1.71 µM

Question: What about the TGI (SF-295 CNS) of the same molecule?
Answer: 1.68 µM

Question: And the TGI (SF-539 CNS)?
Answer: 1.55 µM

Question: And the TGI (SK-MEL-2 melanoma)?
Answer: 4.62 µM

Question: And the TGI (SK-MEL-28 melanoma)?
Answer: 2.65 µM

Question: What about the TGI (SK-MEL-5 melanoma) of the same molecule?
Answer: 1.98 µM

Question: And the TGI (SK-OV-3 ovarian)?
Answer: 2.91 µM

Question: And the TGI (SN12C renal)?
Answer: 0.589 µM

Question: And the TGI (SNB-19 CNS)?
Answer: 3.15 µM

Question: What about the TGI (SNB-75 CNS) of the same molecule?
Answer: 1.82 µM

Question: What about the TGI (SNB-78 CNS) of the same molecule?
Answer: 7.17 µM

Question: And the TGI (SR leukemia)?
Answer: 0.646 µM

Question: What about the TGI (SW-620 colon) of the same molecule?
Answer: 0.463 µM

Question: What about the TGI (T-47D breast) of the same molecule?
Answer: 1.65 µM

Question: And the TGI (TK-10 renal)?
Answer: 2.31 µM

Question: What about the TGI (U251 CNS) of the same molecule?
Answer: 1.18 µM

Question: And the TGI (UACC-257 melanoma)?
Answer: 2.13 µM

Question: And the TGI (UACC-62 melanoma)?
Answer: 2.35 µM

Question: What about the TGI (UO-31 renal) of the same molecule?
Answer: 2.54 µM

Question: And the TGI (XF 498 CNS)?
Answer: 1.28 µM
